Measurements from patent publication US20240277732A1, “COMPOSITIONS AND METHODS FOR TREATING BRAIN-GUT DISORDERS” (Enterin, Inc., priority 2018, published 2024).

How the values were obtained:
[1] = Brain distribution of radiolabeled Aminosterol 1436 after IV or ICV administration; format: in vivo; settings: rats
Source text: The purpose of this example was to evaluate the in vivo distribution of Aminosterol 1436 following intracerebroventricular (ICV) and intravenous (IV) administration to rats. ICV injection is an invasive injection technique of substances directly into the cerebrospinal fluid in cerebral ventricles to bypass the blood brain barrier. The results described below detail how aminosterols such as Aminosterol 1436 localize in the brain following in vivo administration, regardless of the route of administration.
Radiolabeled Aminosterol 1436 was injected into rats by two different forms of administration: ICV and IV administration.

[2] = Brain distribution, food intake and body weight after IP or ICV administration; format: in vivo; settings: 10 and 40 μg ICV, 5 mg/kg IP
Source text: The purpose of this example was to evaluate the in vivo distribution of the aminosterol Aminosterol 1436 following intraperitoneal administration (IP) and ICV administration, and to determine the impact the drug has on food intake and body weight when administered IP and ICV.
Additional data regarding in vivo distribution and the effect of the route of administration for an aminosterol is shown in FIG. 7.
This experiment is relevant as the areas of the brain where the aminosterol Aminosterol 1436 localized upon administration are known to control feeding behavior and appetite.

[3] = Intranasal pharmacokinetics in plasma; format: in vivo, Sprague Dawley rats; settings: Sprague-Dawley, rat, in vivo
Source text: The purpose of this example was to evaluate the in vivo distribution and function of aminosterols, such as Aminosterol 1436 and squalamine, following intranasal administration. This experiment relates to the amount of drug needed to obtain a therapeutic result, based on an IN route of administration. The results described below detail that aminosterols such as Aminosterol 1436 act at the level of the hypothalamus following in vivo administration, regardless of the route of administration.

[4] = Weight change after IP or IN administration; format: in vivo; settings: mice
Description: The purpose of this example was to evaluate and compare the impact on weight following administration of an aminosterol such as Aminosterol 1436 to mice via IP or IN.
Mice were administered: (i) intraperitoneally 1 mg/kg or 10 mg/kg of Aminosterol 1436, (ii) intranasally 0.4 mg/kg of Aminosterol 1436, or (iii) a saline control administered IN. Weight of the mice was then measured for 10 days post-administration.

[5] = PK profile IN versus IV bolus; format: in vivo; settings: rat, 2 mg/kg IV bolus
Source text: Thus, the amount of aminosterol in the bloodstream is too low to account for the observed pharmacological effect. This means that when administered IN, an aminosterol is having a pharmacological effect via a mechanism other than via plasma concentration of the drug.

In the case of CC(C)[C@@H](CC[C@@H](C)[C@H]1CC[C@H]2[C@@H]3[C@H](O)C[C@H]4C[C@@H](NCCCNCCCCNCCCN)CC[C@]4(C)[C@H]3CC[C@]12C)OS(=O)(=O)O [Aminosterol 1436], the “site of localization in brain” value ([1]; ICV administration) is reported as “localized to the same regions of the brain”, the “site of localization in brain” value ([1]; IV administration) is reported as “localized in the hypothalamus” and the “effect on food intake over 10 days” value [2] is reported as “significant impact on food intake”. For the same molecule, the “percent change in body weight” value [2] was “decrease in body weight”, the “blood levels after intranasal versus peripherally injected administration” value [3] was 10 times and the “AUC_% Extrap_obs” value ([3]; 0.5 mg/kg) was 47.6%. The AUClast/D ([3]; 0.5 mg/kg) was 18700 kg·ng·h/mL/mg, the “weight change over 10 days” value ([4]; 0.4 mg/kg IN) was “decrease in the weight of the mice in an amount comparable to 10 mg/kg of intraperitoneally administered Aminosterol 1436” and the “weight change over 10 days” value ([4]; 1 mg/kg IP) was “compared similarly to the intranasally administered saline control”. For the same molecule, the “exposure after IV bolus injection” value [5] was 190 µg·h/mL.
